What all share (format): biochemical
The target in test [1] is T1, DYRK1A (Homo sapiens, UniProt Q13627).
T1 construct: purchased Carna Biosciences, Inc. 04-130
Description: Inhibition test on activity of DYRK family, mobility shift assay (MSA), DYRK1A. The note with it: ATP 100 μM, FITC-labeled DYRKtide peptide substrate, room temperature 1 hour; for IC50: read-out: Inhibitory Activity 1a (IC50 against DYRK1A). The procedure:
(§1) [Inhibition Test on Activity of DYRK Family (DYRK1A, DYRK1B, DYRK2, and […])]
(§2) (Method for Measuring Kinase Activity)
(§3) The kinase activity was measured by mobility shift assay (MSA) method using QuickScout Screening Assist™ MSA (commercially available kit manufactured by Carna Biosciences, Inc.). The substrate of the kinase reaction used was an FITC-labeled DYRKtide peptide included in the kit. An assay buffer [20 mM HEPES, 0.01% Triton X-100™, 2 mM dithiothreitol, pH 7.5] was used to create a substrate mixture solution with a substrate (4 μM), MgCl2 (20 mM), and ATP (DYRK1A: 100 μM; DYRK1B: 200 μM; DYRK2: 40 μM; and DYRK3: 20 μM). In addition, kinases (DYRK1A: manufactured by Carna Biosciences, Inc., Cat. No. 04-130; DYRK1B: manufactured by Carna Biosciences, Inc., Cat. No. 04-131; DYRK2; manufactured by Carna Biosciences, Inc., Cat. No. 04-132; and DYRK3; manufactured by Carna Biosciences, Inc., Cat. No. 04-133) were diluted with the assay buffer to prepare enzyme solutions (DYRK1A: 0.2 ng/μL; DYRK1B: 0.08 ng/μL; DYRK2: 0.04 ng/μL; and DYRK3: 0.25 ng/μL). The 10 mM solution of the test compound in DMSO was further diluted with DMSO to 10 levels of the concentration (0.00003 mM, 0.0001 mM, 0.0003 mM, 0.001 mM, 0.003 mM, 0.01 mM, 0.03 mM, 0.1 mM, 0.3 mM, and 1 mM), each of which was subjected to 25-fold dilution with the assay buffer to obtain a drug solution (4% DMSO solution). 5 μL of the drug solution or a control solution (4% DMSO-assay buffer), 5 μL of the substrate mixture solution, and 10 μL of the enzyme solution were mixed in the wells of a polypropylene 384-well plate and allowed to react at room temperature for 1 hour, and then the reaction was quenched by adding 60 μL of the termination buffer included in the kit. Subsequently, the quantities of the substrates (S) and the phosphorylated substrate (P) in the reaction solution were measured using LabChip EZ Reader II system (manufactured by Caliper Life Sciences) according to the protocol of the assay kit.
(§4) (Method for Evaluating Inhibitory Activity)
(§5) The heights of the peaks of the “substrate” and the “phosphorylated substrate” were expressed as S and P, respectively, and a blank containing the assay buffer instead of the enzyme solution was also measured.
(§6) The inhibition rate (%) of the test compound was calculated according to the following equation:
(§7) Inhibition rate (%)=(1−(C−A)/(B−A))×100
(§8) wherein, A, B, and C represent P/(P+S) of the blank well, P/(P+S) of the control solution well, and P/(P+S) of the compound-containing well, respectively.
(§9) The IC50 value was calculated via a regression analysis of the inhibition rate and the test compound concentration (logarithmic value).
(§10) The inhibiting activities of representative compounds of the present invention are shown against DYRK1A, DYRK1B, DYRK2, and DYRK3 in Tables 7 and 8. The kinase activity inhibitory effect was indicated with the mark *** at an IC50 value of less than 0.01 μM; the mark ** at 0.01 μM or more and less than 0.1 μM; the mark * at 0.1 μM or more and less than 1 μM; and the mark — at 1 μM or more (N.D. indicates not measured).

In test [2] the target is T2, DYRK2 (Homo sapiens, UniProt Q92630).
T2 construct: purchased Carna Biosciences, Inc. 04-132
T2 sequence (Q92630 1-601): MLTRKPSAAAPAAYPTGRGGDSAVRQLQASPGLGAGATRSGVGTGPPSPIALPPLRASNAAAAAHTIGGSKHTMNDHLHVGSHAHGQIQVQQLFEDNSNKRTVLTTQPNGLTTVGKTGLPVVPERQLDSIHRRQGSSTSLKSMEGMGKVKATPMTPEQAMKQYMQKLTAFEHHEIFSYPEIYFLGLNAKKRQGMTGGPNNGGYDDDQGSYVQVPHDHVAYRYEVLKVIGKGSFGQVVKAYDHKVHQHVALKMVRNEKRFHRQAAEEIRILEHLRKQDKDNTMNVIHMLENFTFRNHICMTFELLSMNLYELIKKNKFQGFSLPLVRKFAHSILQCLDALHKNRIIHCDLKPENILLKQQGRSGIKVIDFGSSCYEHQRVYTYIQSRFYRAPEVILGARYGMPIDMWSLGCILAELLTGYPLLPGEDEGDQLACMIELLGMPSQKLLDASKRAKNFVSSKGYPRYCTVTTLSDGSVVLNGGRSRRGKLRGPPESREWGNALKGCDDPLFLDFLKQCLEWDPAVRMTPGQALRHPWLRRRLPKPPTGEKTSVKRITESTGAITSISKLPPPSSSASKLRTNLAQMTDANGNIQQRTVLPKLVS
Description: Inhibition test on activity of DYRK family, mobility shift assay (MSA), DYRK2. The conditions noted are these: ATP 40 μM, FITC-labeled DYRKtide peptide substrate, room temperature 1 hour; read-out: Inhibitory Activity 2 (IC50 against DYRK2). On the procedure: as §1, §2, §3, §4, §5, §6, §7, §8, §9, §10

Test [3] deals with T3, DYRK3 (Homo sapiens, UniProt O43781).
T3 construct: purchased Carna Biosciences, Inc. 04-133
T3 sequence (O43781 1-588): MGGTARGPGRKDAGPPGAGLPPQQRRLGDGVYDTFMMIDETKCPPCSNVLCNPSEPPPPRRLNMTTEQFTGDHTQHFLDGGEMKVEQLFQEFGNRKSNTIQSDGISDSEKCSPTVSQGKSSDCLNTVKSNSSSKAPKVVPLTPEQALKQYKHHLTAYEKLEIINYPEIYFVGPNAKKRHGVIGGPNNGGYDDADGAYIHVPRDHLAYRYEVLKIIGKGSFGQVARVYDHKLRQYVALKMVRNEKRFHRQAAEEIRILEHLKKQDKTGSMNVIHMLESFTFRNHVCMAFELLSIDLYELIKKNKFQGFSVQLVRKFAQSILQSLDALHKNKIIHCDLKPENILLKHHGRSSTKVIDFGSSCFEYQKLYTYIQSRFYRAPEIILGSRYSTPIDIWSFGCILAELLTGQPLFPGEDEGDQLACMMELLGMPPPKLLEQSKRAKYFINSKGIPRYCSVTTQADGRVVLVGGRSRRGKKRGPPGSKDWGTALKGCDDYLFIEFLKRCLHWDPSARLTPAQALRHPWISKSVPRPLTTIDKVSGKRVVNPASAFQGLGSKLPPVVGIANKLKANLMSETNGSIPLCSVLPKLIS
Description: Inhibition test on activity of DYRK family, mobility shift assay (MSA), DYRK3. The note with it: ATP 20 μM, FITC-labeled DYRKtide peptide substrate, room temperature 1 hour; for IC50: read-out: Inhibitory Activity 3 (IC50 against DYRK3). On the procedure: as §1, §2, §3, §4, §5, §6, §7, §8, §9, §10

The term IC50 denotes the concentration that gives 50% inhibition.

Take `CC#CC1CNC(=O)N1c1nc2c3c(ccc2s1)OCCN3CCOC` (racemic) [Example 42, (RS)-1-[9-(2-methoxyethyl)-8,9-dihydro-7H-thiazolo[4′,5′:3,4]benz[1,2-b][1,4]oxazin-2-yl]-5-(prop-1-yn-1-yl)imidazolidin-2-one]: the “Inhibitory Activity 1a (IC50 against DYRK1A)” value (“Inhibitory Activity 1a” for short) in test [1] is reported as “* * *”. For the same compound, the IC50 in test [2] was ≥ 1000 nM; in test [3], 100 to 1000 nM.
`CC#CC1CNC(=O)N1c1nc2c3c(ccc2s1)OCCN3CCN1CCCCC1` (racemic) [Example 43, (RS)-1-{9-[2-(piperidin-1-yl)ethyl]-8,9-dihydro-7H-thiazolo[4′,5′:3,4]benz[1,2-b][1,4]oxazin-2-yl}-5-(prop-1-yn-1-yl)imidazolidin-2-one]: the half-inhibitory concentration (IC50) in test [1] is 100 to 1000 nM; in test [2], ≥ 1000 nM; in test [3], ≥ 1000 nM.
On to `CC#CC1CNC(=O)N1c1nc2c3c(ccc2s1)OCCN3CCN1CCN(C)CC1` (racemic) [Example 44, (RS)-1-{9-[2-(4-methylpiperazin-1-yl)ethyl]-8,9-dihydro-7H-thiazolo[4′,5′:3,4]benz[1,2-b][1,4]oxazin-2-yl}-5-(prop-1-yn-1-yl)imidazolidin-2-one], for which the IC50 in test [1], in test [2] and in test [3] was ≥ 1000 nM each time.
For `CC#CC1CNC(=O)N1c1nc2c3c(ccc2s1)OCCN3C1CC1` (racemic) [Example 45, (RS)-1-(9-cyclopropyl-8,9-dihydro-7H-thiazolo[4′,5′:3,4]benz[1,2-b][1,4]oxazin-2-yl)-5-(prop-1-yn-1-yl)imidazolidin-2-one], the “Inhibitory Activity 1a” value in test [1] was “* *”. Besides, the IC50 in test [2] and in test [3] was 100 to 1000 nM in each case.
As for `CC#CC1CNC(=O)N1c1nc2c3c(ccc2s1)OCC(=O)N3C` (racemic) [Example 46, (RS)-9-methyl-2-[2-oxo-5-(prop-1-yn-1-yl)imidazolidin-1-yl]-7H-thiazolo[4′,5′:3,4]benz[1,2-b][1,4]oxazin-8(9H)-one], in test [1], the “Inhibitory Activity 1a” value is listed as “* *”. Also, the IC50 in test [2] was ≥ 1000 nM; in test [3] it was 100 to 1000 nM.
In the same order, the values of `CC#CC1CNC(=O)N1c1nc2c3c(ccc2s1)OCCN3S(C)(=O)=O` (racemic) [Example 47, (RS)-1-[9-(methylsulfonyl)-8,9-dihydro-7H-thiazolo[4′,5′:3,4]benz[1,2-b][1,4]oxazin-2-yl]-5-(prop-1-yn-1-yl)imidazolidin-2-one] are “* *”, ≥ 1000 nM and 100 to 1000 nM.
For `CC#CC1CNC(=O)N1c1nc2c(ccc3[nH]ncc32)s1` (racemic) [Example 50, (RS)-5-(prop-1-yn-1-yl)-1-(6H-thiazolo[4,5-e]indazol-2-yl)imidazolidin-2-one], the “Inhibitory Activity 1a” value in test [1] is reported as “* *”. The half-inhibitory concentration (IC50) in test [2] and in test [3] was ≥ 1000 nM each time.
For the compound `CC#CC1CNC(=O)N1c1nc2c(ccc3nn(C)cc32)s1` (racemic) [Example 51, (RS)-1-(7-methyl-7H-thiazolo[4,5-e]indazol-2-yl)-5-(prop-1-yn-1-yl)imidazolidin-2-one], the “Inhibitory Activity 1a” value in test [1] was “* * *”. The 50% inhibitory concentration (IC50) in test [2] and in test [3] was 100 to 1000 nM each time.
`CC#CC1N(c2nc3c4c(ccc3s2)OCC4)C(=O)NC1(C)C` (racemic) [Example 54, (RS)-1-(7,8-dihydrobenzofuro[4,5-d]thiazol-2-yl)-4,4-dimethyl-5-(prop-1-yn-1-yl)imidazolidin-2-one]: in test [1], the “Inhibitory Activity 1a” value is recorded as “* *”. In addition, the IC50 in test [2] and in test [3] was ≥ 1000 nM throughout.
For `CC#CC1CNC(=O)N1c1nc2c3c(ccc2s1)OCCO3` (racemic) [Example 55, (RS)-1-(7,8-dihydro-[1,4]dioxyno[2′,3′:5,6]benzo[1,2-d]thiazol-2-yl)-5-(prop-1-yn-1-yl)imidazolidin-2-one], the “Inhibitory Activity 1a” value in test [1] is “* * *”. In addition, the IC50 in test [2] and in test [3] was 100 to 1000 nM each time.
On to `CC#C[C@@H]1[C@H](CO)NC(=O)N1c1nc2c3c(ccc2s1)OCC3` (relative stereo) [Example 60, cis-1-(7,8-dihydrobenzofuro[4,5-d]thiazol-2-yl)-4-(hydroxymethyl)-5-(prop-1-yn-1-yl)imidazolidin-2-one], for which the “Inhibitory Activity 1a” value in test [1] is recorded as “* * *”. In addition, in test [2], the IC50 was 100 to 1000 nM. Moreover, the “Inhibitory Activity 3 (IC50 against DYRK3)” value in test [3] was “* *”.
Turning to `CC#C[C@H]1[C@H](CO)NC(=O)N1c1nc2c3c(ccc2s1)OCC3` (relative stereo) [Example 61, trans-1-(7,8-dihydrobenzofuro[4,5-d]thiazol-2-yl)-4-(hydroxymethyl)-5-(prop-1-yn-1-yl)imidazolidin-2-one], the “Inhibitory Activity 1a” value in test [1] is reported as “* * *”. The IC50 in test [2] and in test [3] was 100 to 1000 nM each time.
Turning to `CC#C[C@@H]1[C@H](CO)NC(=O)N1c1nc2c3c(ccc2s1)OCCO3` (relative stereo) [Example 64, cis-1-(7,8-dihydro-[1,4]dioxino[2′,3′:5,6]benz[1,2-d]thiazol-2-yl)-4-(hydroxymethyl)-5-(prop-1-yn-1-yl)imidazolidin-2-one], the “Inhibitory Activity 1a” value in test [1] is given as “* * *”. Besides, the half-inhibitory concentration (IC50) in test [2] and in test [3] was 100 to 1000 nM in each case.

The record behind these values is patent publication US20230138851A1, “NOVEL ALKYNE DERIVATIVES” (CARNA BIOSCIENCES, INC., priority 2020, published 2023).
